Reference: PMC9898036, “VIP152 is a selective CDK9 inhibitor with pre-clinical in vitro and in vivo efficacy in chronic lymphocytic leukemia” (Leukemia, 2022)
Numbering of substitutions follows the chain as printed. Like-named read-outs stand apart in the source and are kept apart here.

Key:
[1] = target: CLK3 (Homo sapiens, UniProt P49761); test: KINOMEscan: CLK3; assay type: binding; conditions: 1000 nM, read-out: Percent Control
[2] = target: T1, ABL1 (Homo sapiens, UniProt P00519, F317L); test: KINOMEscan: ABL1; assay type: binding; conditions: read-out: Percent Control; for remaining binding at 0.1 µM: 100 nM; for remaining binding at 1 µM: 1000 nM
T1 sequence (P00519 229-512 F317L): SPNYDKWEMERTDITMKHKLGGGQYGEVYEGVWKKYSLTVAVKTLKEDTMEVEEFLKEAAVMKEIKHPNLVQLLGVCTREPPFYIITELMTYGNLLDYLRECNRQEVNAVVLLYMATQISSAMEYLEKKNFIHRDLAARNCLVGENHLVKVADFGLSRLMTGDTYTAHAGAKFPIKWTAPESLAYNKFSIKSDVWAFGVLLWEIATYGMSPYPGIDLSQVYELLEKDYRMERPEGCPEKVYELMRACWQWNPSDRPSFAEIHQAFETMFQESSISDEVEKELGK
Description: (§1) The structure and synthesis of VIP152 were recently described by Lücking et al.. (Fig. 1A); however, the selectivity of the molecule in cellular systems has yet to be explored. […] We also performed this experiment at 1000 nM, where CDK9 was inhibited at 99%. […] We found a strong concordance between our data and those of Lücking when comparing the most inhibited kinases. Potential off-target effects of VIP152 were next tested in vitro at a concentration of 10 µM for off-target activity against a broad range of receptors, transporters, ion channels, and enzymes (n = 138) using the Eurofins Diversity Panel.
(§2) Kinomescan Kinase Profiling Assay
(§3) Kinomescan Assay was performed at DiscoverRX and described in Fabian, et al. 2005, Nat.
(§4) Biotechnol. In brief, kinases were produced and subsequently tagged with DNA for qPCR detection.
(§5) Streptavidin-coated magnetic beads were bound to biotinylated kinase ligands to serve as a solid support.
(§6) VIP152 was dissolved in DMSO and tested across a 10 serial threefold dilution set and compared to a test compound and a DMSO control. Kinases which were inhibited by VIP152 would not be bound to the solid-support resulting in decreased substrate for the qPCR reaction. Kinome map was produced via TreeSpot Analysis from DiscoverRX. […]

[3] = target: ABL1 (Homo sapiens, UniProt P00519, Y253F); test: KINOMEscan: ABL1; assay type: binding; conditions: ABL1(Y253F)-phosphorylated, read-out: Percent Control
Description: as §1, §2, §3, §4, §5, §6

[4] = target: T2, ABL1 (Homo sapiens, UniProt P00519, Q252H); test: KINOMEscan: ABL1; assay type: binding; conditions: read-out: Percent Control; for remaining binding at 0.1 µM: 100 nM; for remaining binding at 1 µM: 1000 nM
T2 sequence (P00519 229-512 Q252H): T1 sequence (P00519 229-512 F317L) with Q24H, L89F
Description: as §1, §2, §3, §4, §5, §6

[5] = target: T3, ABL1 (Homo sapiens, UniProt P00519, T315I); test: KINOMEscan: ABL1; assay type: binding; conditions: read-out: Percent Control; for remaining binding at 0.1 µM: 100 nM; for remaining binding at 1 µM: 1000 nM
T3 sequence (P00519 229-512 T315I): T1 sequence (P00519 229-512 F317L) with T87I, L89F
Description: as §1, §2, §3, §4, §5, §6

[6] = system: ABL1; test: KINOMEscan: ABL1; assay type: binding, human; conditions: 1000 nM
Description: as §1, §2, §3, §4, §5, §6

[7] = target: ABL1 (Homo sapiens, UniProt P00519, E255K); test: KINOMEscan: ABL1; assay type: binding; conditions: ABL1(E255K)-phosphorylated, read-out: Percent Control
Description: as §1, §2, §3, §4, §5, §6

[8] = target: T4, ABL1 (Homo sapiens, UniProt P00519, H396P); test: KINOMEscan: ABL1; assay type: binding; conditions: read-out: Percent Control; for remaining binding at 0.1 µM: 100 nM; for remaining binding at 1 µM: 1000 nM
T4 sequence (P00519 229-512 H396P): T1 sequence (P00519 229-512 F317L) with L89F, H168P
Description: as §1, §2, §3, §4, §5, §6

[9] = target: T5, ABL1 (Homo sapiens, UniProt P00519, F317I); test: KINOMEscan: ABL1; assay type: binding; conditions: read-out: Percent Control; for remaining binding at 0.1 µM: 100 nM; for remaining binding at 1 µM: 1000 nM
T5 sequence (P00519 229-512 F317I): T1 sequence (P00519 229-512 F317L) with L89I
Description: as §1, §2, §3, §4, §5, §6

[10] = target: ABL1 (Homo sapiens, UniProt P00519); test: KINOMEscan: ABL1; assay type: binding; conditions: read-out: Percent Control; for remaining binding at 0.1 µM: 100 nM; for remaining binding at 1 µM: 1000 nM
Description: as §1, §2, §3, §4, §5, §6

CLK3, sequence (P49761 whole entry): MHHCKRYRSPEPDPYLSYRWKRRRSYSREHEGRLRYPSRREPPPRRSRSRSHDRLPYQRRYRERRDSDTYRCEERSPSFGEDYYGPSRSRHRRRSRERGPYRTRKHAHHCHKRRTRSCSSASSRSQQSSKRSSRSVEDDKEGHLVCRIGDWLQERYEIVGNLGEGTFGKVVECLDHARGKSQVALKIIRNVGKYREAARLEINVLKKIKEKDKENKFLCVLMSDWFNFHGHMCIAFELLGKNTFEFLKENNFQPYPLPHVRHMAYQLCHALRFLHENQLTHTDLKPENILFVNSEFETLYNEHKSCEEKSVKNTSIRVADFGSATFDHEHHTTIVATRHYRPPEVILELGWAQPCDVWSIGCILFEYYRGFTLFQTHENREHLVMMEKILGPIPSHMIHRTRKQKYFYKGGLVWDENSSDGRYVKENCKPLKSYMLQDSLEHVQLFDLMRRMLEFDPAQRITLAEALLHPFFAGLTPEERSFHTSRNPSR

## COc1cc(F)ccc1-c1cc(Nc2cc(CS(C)(=N)=O)ccn2)ncc1F (stereo not drawn) [VIP152]
[1]
  remaining binding at 1 µM: 85%
[2]; ABL1(F317L)-nonphosphorylated
  remaining binding at 0.1 µM: 100%
  remaining binding at 1 µM: 52%
[2]; ABL1(F317L)-phosphorylated
  remaining binding at 0.1 µM: 95%
  remaining binding at 1 µM: 56%
[3]; 100 nM
  remaining binding at 0.1 µM: 100%
[3]; 1000 nM
  remaining binding at 1 µM: 45%
[4]; ABL1(Q252H)-nonphosphorylated
  remaining binding at 0.1 µM: 72%
  remaining binding at 1 µM: 25%
[4]; ABL1(Q252H)-phosphorylated
  remaining binding at 0.1 µM: 100%
  remaining binding at 1 µM: 46%
[5]; ABL1(T315I)-nonphosphorylated
  remaining binding at 0.1 µM: 96%
  remaining binding at 1 µM: 3.2%
[5]; ABL1(T315I)-phosphorylated
  remaining binding at 0.1 µM: 95%
  remaining binding at 1 µM: 53%
[6]
  inhibition of ABL1: 96.8%
[7]; 100 nM
  remaining binding at 0.1 µM: 83%
[7]; 1000 nM
  remaining binding at 1 µM: 48%
[8]; ABL1(H396P)-nonphosphorylated
  remaining binding at 0.1 µM: 70%
  remaining binding at 1 µM: 7.6%
[8]; ABL1(H396P)-phosphorylated
  remaining binding at 0.1 µM: 100%
  remaining binding at 1 µM: 52%
[9]; ABL1(F317I)-nonphosphorylated
  remaining binding at 0.1 µM: 100%
  remaining binding at 1 µM: 84%
[9]; ABL1(F317I)-phosphorylated
  remaining binding at 0.1 µM: 95%
  remaining binding at 1 µM: 33%
[10]; ABL1-nonphosphorylated
  remaining binding at 0.1 µM: 64%
  remaining binding at 1 µM: 21%
[10]; ABL1-phosphorylated
  remaining binding at 0.1 µM: 73%
  remaining binding at 1 µM: 54%
